Like-named read-outs stand apart in the source and are kept apart here.
Experiments:
variety of microbes = details: 200 ppm gNO, cited from earlier work
[1] = system: bovine respiratory disease; details: intermittent gNO inhalation; cattle; cited from earlier work
[2] = phase I safety study: plasma angiopoietins Ang-1 and Ang-2; format: in vivo, human; details: 160 ppm gNO inhalation vs baseline
From the text: (§1) Cohort: 10 healthy adult volunteer subjects (5 males, 5 females), aged 20 to 62 years, were enrolled in the study after screening their medical history, a physical examination, pulmonary function tests and blood values. Exclusion criteria included individuals less than 19 years of age, pregnant females and unwilling to practice birth control during the study, diagnosed with pulmonary disease, epistaxis, hemoptysis, methemoglobinemia, organ transplant recipient or receiving antibiotic therapy.
(§2) Regimen and post-treatment: After obtaining informed consent, treatment was initiated within 5 days of enrollment. Subjects were housed in a hospital ward and received 160 ppm gNO for 30 minutes every four hours (Q4h), five times a day, for five consecutive days by inhalation. Subjects returned for follow-up evaluations 3, 7 and 21 days after the final gNO administration. Subject safety was determined by monitoring vital signs, methemoglobin levels, lung function, blood chemistry, hematology, prothrombin time, inflammatory cytokine/chemokines levels and endothelial activation. These parameters were compared to baseline and at various time-points during and after gNO administration.
Hematological assessment included a complete blood count and differentials (hemoglobin, hematocrit, red blood cell count, white blood cell count, white blood cell differential, and platelet count) were obtained in order to monitor blood chemistry, hematology and inflammation measurements. The blood chemistry profile included serum creatinine, and liver function tests such as aspartate aminotransferase (AST) serum glutamic oxaloacetic transaminase (SGOT), alkaline phosphatase, and gamma-glutamyl transferase (GGT). The effect of gNO on coagulation was determined by the prothrombin time (PT) and its derived measures of prothrombin ratio (PR) and international normalized ratio (INR). […] Plasma cytokine levels were assessed using the human inflammation cytokine bead array kit (BD Bioscience, Canada). Plasma levels of angiopoietin Ang-1 and Ang-2 were determined by ELISA (R&D Systems, USA). […]

[3] = system: influenza A/victoria/H3N2; details: 160 ppm gNO, cited from earlier work
[4] = cited from earlier work
[5] = phase I safety study in healthy adults: adverse events and vital signs; format: in vivo, human; details: 160 ppm gNO 30 min, 5 times a day, 5 days
From the text: as §1
(§3) Regimen and post-treatment: After obtaining informed consent, treatment was initiated within 5 days of enrollment. […] Subject safety was determined by monitoring vital signs, methemoglobin levels, lung function, blood chemistry, hematology, prothrombin time, inflammatory cytokine/chemokines levels and endothelial activation. […]
(§4) General medical examinations were performed by a pulmonary physician on screening and on days 8, 12 and 26 to obtain oxygenation and vital sign measurements. […] Oxygenation was measured with a pulse oximeter (Rad 57, Masimo Corporation, USA) which was used according to manufacturer's guidelines to measure functional oxygen saturation of arterial hemoglobin (SPO2) and heart rate. These parameters were measured continuously during every gNO administration and for 3.5 hours after the first treatment of the day. […]

[6] = gNO concentrations below 200 ppm; 6 hours/day for 28 days; rats; cited from earlier work
[7] = system: Pseudomonas aeruginosa pneumonia; details: 160 ppm gNO, intermittent 30 minute exposures; rat; cited from earlier work
S. aureus = details: solid media, cited from earlier work
[8] = system: highly pathogenic Avian Influenza H7N3; details: cited from earlier work
[9] = system: five planktonic species of methicillin resistant S. aureus (MRSA); details: 1,600 ppm hours of gNO; all five strains; cited from earlier work
[10] = system: chronic, non-healing wound; details: topical 200 ppm gNO; within the first three days; cited from earlier work
[11] = phase I safety study: methemoglobin (SpMet) by pulse oximeter; format: in vivo, human
From the text: as §1, §2
The levels of gNO, NO2, O2 and methemoglobin were monitored during the administration of gNO. The target gas mixture was 160 ppm gNO with a nitrogen dioxide (NO2) level of less than 5 ppm and an oxygen (O2) level ranging from 21% to 25%. Inspiratory NO, NO2 and O2 levels were continuously monitored by sampling from the mouthpiece sample port located about 6 millimeters from the mouth of the subject with an AeroNOx (Pulmonox, AB, Canada) NO, NO2 and O2 electrochemical analyzer. Delivery safety was determined by the number of occasions that NO2 exceeded 5 ppm, gNO exceeding 10% variation and O2 dropping below 20% during gNO administration. A commercially available noninvasive pulse oximeter (Rad 57, Masimo Corporation, USA) was used to measure saturation levels at the periphery of methemoglobin (SpMet).
These parameters were measured continuously during every gNO administration course and for 3.5 hours after the first treatment of the day. Daily serum samples were collected and frozen at −80° C. and the serum […] level was measured using the Griess reagent.

[12] = phase I safety study: plasma cytokines, cytometric bead array; format: in vivo, human; details: 160 ppm gNO inhalation vs baseline
From the text: as §1, §2
Hematological assessment included a complete blood count and differentials (hemoglobin, hematocrit, red blood cell count, white blood cell count, white blood cell differential, and platelet count) were obtained in order to monitor blood chemistry, hematology and inflammation measurements. The blood chemistry profile included serum creatinine, and liver function tests such as aspartate aminotransferase (AST) serum glutamic oxaloacetic transaminase (SGOT), alkaline phosphatase, and gamma-glutamyl transferase (GGT). The effect of gNO on coagulation was determined by the prothrombin time (PT) and its derived measures of prothrombin ratio (PR) and international normalized ratio (INR). Heparinized plasma was collected at baseline and on days 1, 2, 4, and 5 of gNO administration, and on follow-up days 3, 7 and 21 and frozen at −80° C. Plasma cytokine levels were assessed using the human inflammation cytokine bead array kit (BD Bioscience, Canada). Plasma levels of angiopoietin Ang-1 and Ang-2 were determined by ELISA (R&D Systems, USA).
FIGS. 6A-F present blood levels of various cytokines before and after inhalation of 160 ppm gaseous nitric oxide by 10 healthy human individuals, as measured from blood samples collected within 7 days prior to gNO administration, each day during the treatment and 8, 12 and 26 days thereafter, wherein FIG. 6A presents the plasma levels of tumor necrosis factor (TNF)α, interleukin (IL)-1β data is presented in FIG. 6B, IL-6 in FIG. 6C, IL-8 in FIG. 6D, IL-10 in FIG. 6E and IL-12p70 in FIG. 6F, as determined by a cytometric bead array while statistical differences are compared by repeated measures ANOVA with Bonferroni post test for parametric data (IL-6, IL-8, IL-10, IL-12p70), or Friedman test with Dunn's post test for non-parametric data (TNF and IL-1b).

[13] = phase I safety study: pulmonary function tests; format: in vivo, human
From the text: as §1, §2
Subjects underwent full pulmonary function tests (PFT), including lung diffusing capacity (DLCO) by a trained technician utilizing a calibrated pulmonary function system (Jaeger MasterScreen, VIASYS Healthcare, USA) on screening and days 2, 8, 12 and 26. Spirometry test (Microloop by Micro Medical, England) was performed on days 1, 3 and 4. Effect of gNO on lung function and DLCO was determined by changes from baseline, treatment days and follow up days.

P. aeruginosa = details: solid media, cited from earlier work
[14] = phase I safety study: oxygen saturation (SpO2) by pulse oximeter; format: in vivo, human
From the text: as §1, §3, §4

[15] = healthy humans, cited from earlier work
[16] = gNO greater than 120 ppm, vs medical air
[17] = during the course of the study vs baseline

Compound: [N]=O [gNO, nitric oxide]
- bactericidal effect (variety of microbes; all microorganisms tested): complete bactericidal effect
- reduction in CFU/mL (variety of microbes; every bacteria challenged): ≥ 3 log10
- clinical symptoms of bovine respiratory disease [1]: decrease the clinical symptoms
- Ang-2/Ang-1 ratio [2]: not affected
- plasma Ang-1 [2]: unaffected
- plasma Ang-2 [2]: not affected
- infectivity of virions ([3]; MDCK cells): reducing the infectivity
- anti-viral effect, intermittent vs single exposure ([3]; one 30 minute dose vs three 30 minute treatments Q4h): more evident in the intermittent form of exposure
- mortality ([4]; 300 ppm gNO, first 1-2 days, group of 10 rats): Six of the animals treated with 300 ppm gNO died
- mortality ([4]; 400 ppm gNO, first day of exposure, groups of 10 rats): all of the animals died
- mortality ([4]; 500 ppm gNO, first day of exposure, groups of 10 rats): all of the animals died
- tolerability of treatments ([5]; 10 healthy adults, 250 administrations): well tolerated
- minor adverse events reported ([5]; arm bruising from blood draws (1), numbing of tongue (2)): Three minor adverse events
- deaths [6]: No deaths occurred
- leukocyte infiltration [7]: effective to reduce
- pulmonary bioburden [7]: effective to reduce
- survival (downward bactericidal trend) (S. aureus; 50-160 ppm gNO): 5-10%
- reduction of colony formation (S. aureus; [16]): greater than 90%
- infectivity of virions [8]: reducing the infectivity
- population of planktonic MRSA strains [9]: reduction in the population
- biofilm of the wound [10]: no longer visibly present
- follow-up SpMet ([11]; 3, 7 and 21 days after final exposure): did not show any residual increase in SpMet
- all 930 recorded methemoglobin percent levels (SpMet) ([11]; 160 ppm gNO 30 min, 5 times a day, 5 days): < 5%
- SpMet increase between pretreatment and post treatment ([11]; 160 ppm gNO 30 min, p<0.001): about 1%
- time for SpMet to return to baseline ([11]; after 160 ppm gNO 30 min, prior to next administration): 3.5 h
- highest SpMet ([11]; at the end of the 30 minutes treatment, 160 ppm gNO): 2.5%
- accumulation of SpMet with repeated treatments ([11]; five daily treatments for five consecutive days): no accumulative or lingering effect
- SpMet level of subjects undergoing the method ([11]; general statement referring to the Examples): ≤ 1%
- average increase of SpMet ([11]; single 30 minutes treatment course, 160 ppm gNO, baseline 0.16 percent): 0.9%
- plasma IL-1b level [12]: unaffected
- plasma IL-6 level [12]: unaffected
- plasma IL-8 level [12]: unaffected
- plasma IL-10 level [12]: unaffected
- plasma IL-12p70 level [12]: unaffected
- plasma TNF level [12]: unaffected
- pulmonary function tests ([13]; during and after 160 ppm gNO treatments): did not reveal any abnormalities
- FEV1 [13, 17]: did not differ from baseline
- maximum mid-expiratory flow (MMEF) [13, 17]: did not differ from baseline
- survival (downward bactericidal trend) (P. aeruginosa; 50-160 ppm gNO): 5-10%
- reduction of colony formation (P. aeruginosa; [16]): greater than 90%
- SpO2 change between pretreatment and post treatment ([14]; 160 ppm gNO, not significant statistically nor clinically): decreased slightly
- hypoxemia (less than 85% SpO2) ([14]; during or after 160 ppm gNO administration): No sudden incidences of hypoxemia
- MetHb level ([15]; inhalation of 128 ppm for 3 hours): > 5%
- MetHb level ([15]; inhalation of 512 ppm for 55 minutes): > 5%

From patent US12478640B2, “Inhalation of nitric oxide for treating respiratory diseases” (BEYOND AIR LTD, priority 2012, dated 2025)
